From PubChem BioAssay (NCI)
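Cultured in 96-well plates, cells were exposed to test compound for 48 hours across five concentrations. GI50 = concentration required for 50% inhibition of growth. TGI: concentration producing complete growth inhibition.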

Assays:
Assay in all cases: NCI-60 cell line screen, 48 h
[1] = test system: BT-549 breast
[2] = test system: IGROV1 ovarian
[3] = test system: SR leukemia
[4] = test system: HL-60(TB) leukemia
[5] = test system: OVCAR-8 ovarian
[6] = test system: SF-295 CNS
[7] = test system: A498 renal
[8] = test system: U251 CNS
[9] = test system: HCC-2998 colon
[10] = test system: MDA-MB-435

## CCOC(=O)[C@@H](C)C[C@H](Cc1ccccc1)NC(=O)c1csc([C@@H](C[C@H](C(C)C)N(C)C(=O)[C@@H](NC(=O)[C@H]2C[C@H](O)CCN2C)C(C)C)OC(C)=O)n1
[1]
  GI50: 0.00283 µM
  TGI: 0.0915 µM
[2]
  GI50: 0.00209 µM
  TGI: > 16.7 µM
[3]
  GI50: < 0.00167 µM
  TGI: > 16.7 µM
[4]
  GI50: 0.00278 µM
  TGI: 0.012 µM
[5]
  GI50: 0.0166 µM
  TGI: > 16.7 µM
[6]
  GI50: 0.00781 µM
  TGI: > 16.7 µM
[7]
  GI50: 0.00721 µM
  TGI: 0.0879 µM
[8]
  GI50: 0.00614 µM
  TGI: > 16.7 µM
[9]
  GI50: 0.00295 µM
  TGI: > 16.7 µM

## C=C1c2[nH]c3ccccc3c2CC(C(=O)O)N1C(O)c1ccc(S(=O)(=O)O)cc1 (stereo not given)
[3]
  TGI: > 100 µM
[4]
  TGI: > 100 µM
[5]
  TGI: > 100 µM
[6]
  TGI: > 100 µM
[7]
  TGI: > 100 µM
[8]
  TGI: > 100 µM
[9]
  TGI: > 100 µM

## Cc1ccc(NC(=O)c2nc(S(C)(=O)=O)oc2-c2ccc(F)cc2)cc1Nc1ccc2ncn(C)c(=O)c2c1
[1]
  GI50: 1.48 µM
  TGI: 2.86 µM
[10]
  GI50: 2.48 µM
  TGI: 7.28 µM
[4]
  GI50: 2.11 µM
  TGI: 5.2 µM
[6]
  GI50: 16 µM
  TGI: 31 µM
[7]
  GI50: 16.3 µM
  TGI: 29.8 µM
[8]
  GI50: 2.01 µM
  TGI: 3.84 µM
[9]
  GI50: 2.54 µM
  TGI: 6.47 µM

## CCc1nc2ccccc2c(=O)n1/N=C(\N=Nc1ccc(Cl)cc1)c1ccccc1
[2]
  TGI: > 100 µM
[4]
  TGI: > 100 µM
[5]
  TGI: > 100 µM
[6]
  TGI: 53.6 µM
[7]
  TGI: > 100 µM
[8]
  TGI: > 87.8 µM
[9]
  TGI: 95.6 µM

## O=C1NC(=O)C2C1C1C=C3c4ccccc4N(c4ccccc4)C32[C@H]2C(=O)NC(=O)[C@@H]12 (stereo not given in full)
[2]
  TGI: > 100 µM
[4]
  TGI: > 100 µM
[5]
  TGI: > 100 µM
[6]
  TGI: > 100 µM
[7]
  TGI: > 100 µM
[9]
  TGI: > 100 µM

## C#CCn1c(=O)c2cccnc2n(CC#C)c1=O
[3]
  TGI: > 100 µM
[4]
  TGI: > 100 µM
[6]
  TGI: > 100 µM
[8]
  TGI: > 100 µM
[9]
  TGI: > 100 µM

## COC1=CC(=O)OC(/C=C(C)/C=C/C2=C(C)CCCC2(C)C)C1 (stereo not given)
[2]
  TGI: > 100 µM
[3]
  TGI: > 100 µM
[4]
  TGI: > 100 µM
[5]
  TGI: > 100 µM
[6]
  TGI: > 100 µM
[7]
  TGI: > 100 µM
[8]
  TGI: > 100 µM
[9]
  TGI: > 100 µM

## COC(=O)c1nc(C(=O)OC)c2c([nH]c3ccccc32)c1C(=O)OC
[2]
  TGI: > 100 µM
[3]
  TGI: > 100 µM
[5]
  TGI: > 100 µM
[6]
  TGI: > 100 µM
[7]
  TGI: > 100 µM
[8]
  TGI: > 100 µM
[9]
  TGI: > 100 µM

## N#Cc1c2ccccc2c2nnc3ccccc3n12
[1]
  GI50: 12 µM
  TGI: 45.1 µM
[2]
  GI50: 19.3 µM
  TGI: 92.2 µM
[3]
  GI50: 32.7 µM
  TGI: > 100 µM
[10]
  GI50: 33.5 µM
  TGI: > 100 µM
[4]
  GI50: > 100 µM
  TGI: > 100 µM
[5]
  GI50: 11.1 µM
  TGI: 45.9 µM
[6]
  GI50: 49 µM
  TGI: > 100 µM
[8]
  GI50: 17.7 µM
  TGI: 70 µM

## CC(=O)N(CCN1C(=O)c2ccccc2C1=O)CCN1C(=O)c2ccccc2C1=O
[3]
  TGI: > 100 µM
[4]
  TGI: > 100 µM
[5]
  TGI: > 100 µM
[6]
  TGI: > 100 µM
[7]
  TGI: > 100 µM
[8]
  TGI: > 100 µM
[9]
  TGI: > 100 µM
